Experimental data from patent US3975366A, “Process for the production of new pepstatins having anti-pepsin activity” (Zaidan Hojin Biseibutsu Kagaku Kenkyu Kai, priority 1971, dated 1976).
In brackets after ≈: the same amount, converted by molar mass. Several values for one entry are separate records, joined by “and”; a condition that tells them apart may be missing. Identical values can stand only once. Counter-ions that a name gives are not always drawn. Each block holds one compound with its values, some of them ahead of it.

Columns and labels:
pepsin = pepsin (Sus scrofa, UniProt P00791); assay: anti-pepsin activity (50% inhibition of pepsin, ID50); assay type: biochemical; design: ID50 (50% inhibition against pepsin): unit not given beside the values; details: for ID50 (50% inhibition against pepsin): amount giving 50% inhibition of pepsin
physchem = details: methanol, organic solvent or mixture

Chain of pepsin (P00791 60-385): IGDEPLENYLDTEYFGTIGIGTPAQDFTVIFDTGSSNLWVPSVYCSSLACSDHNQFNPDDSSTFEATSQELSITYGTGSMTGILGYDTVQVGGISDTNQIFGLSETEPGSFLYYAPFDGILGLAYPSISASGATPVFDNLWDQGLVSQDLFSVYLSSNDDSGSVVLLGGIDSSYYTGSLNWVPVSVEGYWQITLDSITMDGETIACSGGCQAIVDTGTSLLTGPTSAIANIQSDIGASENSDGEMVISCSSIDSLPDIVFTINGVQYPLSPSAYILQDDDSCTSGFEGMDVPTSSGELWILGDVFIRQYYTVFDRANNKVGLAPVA

ID50 (50% inhibition against pepsin) (pepsin): 0.054 γ
SMILES: CCCCCC(=O)N[C@H](C(=O)N[C@H](C(=O)NC(CC(C)C)C(O)CC(=O)N[C@@H](C)C(=O)NC(CC(C)C)C(O)CC(=O)OCC)C(C)C)C(C)C (stereo partly drawn) [pepstatin B ethyl ester]

solubility (physchem): 100 mg/mL (≈ 143 mM)
SMILES: CCCCCC(=O)N[C@H](C(=O)N[C@H](C(=O)N[C@@H](CC(C)C)[C@@H](O)CC(=O)N[C@@H](C)C(=O)N[C@@H](CC(C)C)[C@@H](O)CC(=O)O)C(C)C)C(C)C [pepstatin B]

Id50 (pepsin; unit not given, third crystals of Example 3): 0.05 | solubility (physchem): 5 to 10 mg/mL (≈ 7 to 14 mM)
SMILES: CCCCCC(=O)N[C@H](C(=O)N[C@H](C(=O)NC(CC(C)C)C(O)CC(=O)N[C@@H](C)C(=O)NC(CC(C)C)C(O)CC(=O)OC)C(C)C)C(C)C (stereo partly drawn) [methyl ester of pepstatin B]
anti-pepsin activity compared with pepstatin methyl ester (pepsin; comparison in words): the same as that of pepstatin methyl ester

ID50 (50% inhibition against pepsin) (pepsin): 0.084 γ
SMILES: CCCCCC(=O)N[C@H](C(=O)N[C@H](C(=O)NC(CC(C)C)C(O)CC(=O)N[C@@H](C)C(=O)NC(CC(C)C)C(O)CC(=O)OCCCC)C(C)C)C(C)C (stereo partly drawn) [new pepstatin B n-butyl ester]

ID50 (50% inhibition against pepsin) (pepsin): 0.073 γ
SMILES: CCCCCC(=O)N[C@H](C(=O)N[C@H](C(=O)NC(CC(C)C)C(O)CC(=O)N[C@@H](C)C(=O)NC(CC(C)C)C(O)CC(=O)OCCC)C(C)C)C(C)C (stereo partly drawn) [pepstatin B n-propylester]

ID50 (50% inhibition against pepsin) (pepsin): 0.055 γ and 0.05 γ
SMILES: CCCCCC(=O)N[C@H](C(=O)N[C@H](C(=O)NC(CC(C)C)C(O)CC(=O)N[C@@H](C)C(=O)NC(CC(C)C)C(O)CC(=O)O)C(C)C)C(C)C (stereo partly drawn) [sodium salt of pepstatin B]

SMILES: CC(=NNc1ccc([N+](=O)[O-])cc1[N+](=O)[O-])C(CC(C)C)NC(=O)C(C)NC(=O)CC(O)C(CC(C)C)NC(=O)C(NC(=O)C(NC(=O)CC(C)C)C(C)C)C(C)C (stereo not drawn)
pepsin-inhibitory activity as % of the activity of pepstatin (pepstatin A) (pepsin; relative to pepstatin A): 37%
